Test results published in patent publication US20110039763A1, “TARGETED ANTIMICROBIAL MOIETIES” (C3 JIAN, INC., priority 2009, published 2011).
“Also recorded” adds a separate entry of the source.

Test system: microorganisms
Test: Targeting peptide binding to target microorganisms (Tables 3, 10, 12)
Conditions: microorganism(s) the targeting peptide binds; binding in aqueous buffers varied with peptide solubility, preferably 1x PBS

Row | Substance | Target(s)
1 | PF-200 (GIELKSLIMAQIERWRQA; Peptide with targeting and/or antimicrobial activity) | S. epidermidis and M. luteus and MRSA and E. faecalis and C. jeikeium
2 | PF-201 (GCRPASLSDADPDGR; Peptide with targeting and/or antimicrobial activity) | S. epidermidis; also recorded: M. luteus; also recorded: E. coli; also recorded: C. albicans; also recorded: E. faecalis; also recorded: C. jeikeium; also recorded: C. jejuni
3 | PF-202 (ALNRASLRLALGE; Peptide with targeting and/or antimicrobial activity) | S. epidermidis and M. luteus and E. coli and MRSA and E. faecalis and C. jeikeium and C. jejuni
4 | PF-206 (KLRSASKKSLQEKSCGIMPEKPAG; Peptide with targeting and/or antimicrobial activity) | M. luteus; also recorded: C. albicans; also recorded: C. jeikeium; also recorded: C. jejuni
5 | PF-207 (AAGCRDLGSLSSLVTNPS; Peptide with targeting and/or antimicrobial activity) | M. luteus; also recorded: C. jeikeium
6 | PF-210 (EREDGCDAMPLP; Peptide with targeting and/or antimicrobial activity) | S. epidermidis and P. aeruginosa and C. albicans and MRSA and E. faecalis and C. jeikeium and C. jejuni
7 | PF-213 (MTTGVDFIIEKV; Peptide with targeting and/or antimicrobial activity) | S. epidermidis
8 | PF-214 (GHLRVCWVFSASLLTPFRSATLI; Peptide with targeting and/or antimicrobial activity) | S. mutans; also recorded: S. epidermidis; also recorded: M. luteus; also recorded: E. coli; also recorded: P. aeruginosa; also recorded: A. baumannii
9 | PF-216 (ESVDKITEALEEDGFPAKVQ; Peptide with targeting and/or antimicrobial activity) | S. mutans; also recorded: E. coli
10 | PF-217 (DWEFTHKTIPQKK; Peptide with targeting and/or antimicrobial activity) | S. mutans
11 | PF-218 (SETPEKPVGTFFYSIYYKIIL; Peptide with targeting and/or antimicrobial activity) | S. epidermidis; also recorded: M. luteus; also recorded: P. aeruginosa; also recorded: A. baumannii
12 | PF-219 (FLALAVIAGLFKVILIYAAPYLK; Peptide with targeting and/or antimicrobial activity) | S. epidermidis; also recorded: M. luteus; also recorded: P. aeruginosa; also recorded: A. baumannii
13 | PF-221 (VFDNIDINF; Peptide with targeting and/or antimicrobial activity) | S. epidermidis; also recorded: M. luteus; also recorded: P. aeruginosa
14 | PF-223 (VKFCIECQTKLERKRR; Peptide with targeting and/or antimicrobial activity) | S. epidermidis; also recorded: M. luteus; also recorded: A. baumannii
15 | PF-225 (MNCASPEFKKLMELYK; Peptide with targeting and/or antimicrobial activity) | S. epidermidis
16 | PF-228 (NQLGSQAFAQL; Peptide with targeting and/or antimicrobial activity) | S. mutans
17 | PF-229 (DPILIQIGFTRFALRKAEAEKIEIQVEEGVPA; Peptide with targeting and/or antimicrobial activity) | S. epidermidis; also recorded: M. luteus; also recorded: P. aeruginosa; also recorded: A. baumannii
18 | PF-230 (EDKPTNTIQEIKPVKWQ; Peptide with targeting and/or antimicrobial activity) | S. mutans
19 | PF-231 (AVRDFKKSVREEDEAASLNSPRTIDAQVKTSESTSVKS; Peptide with targeting and/or antimicrobial activity) | S. mutans
20 | PF-232 (FDQLYALEREGKLDELLA; Peptide with targeting and/or antimicrobial activity) | S. epidermidis; also recorded: M. luteus
21 | PF-236 (KEIRTATVAELNAKRRLTSAEQALAEVS; Peptide with targeting and/or antimicrobial activity) | S. mutans; also recorded: S. epidermidis; also recorded: E. coli; also recorded: C. albicans; also recorded: S. pneumoniae; also recorded: E. faecalis
22 | PF-237 (YVKPKVGVHE; Peptide with targeting and/or antimicrobial activity) | S. epidermidis
23 | PF-238 (RNAVVVTEATFPKYEEEITNYLNRRFGEDWSLKLEKCSVA; Peptide with targeting and/or antimicrobial activity) | S. mutans and S. epidermidis and E. coli and P. aeruginosa and C. albicans and MRSA and S. pneumoniae and E. faecalis
24 | PF-239 (PKHNVVTGVSVDLDYKP; Peptide with targeting and/or antimicrobial activity) | S. mutans; also recorded: E. coli
25 | PF-240 (RITEVPPDEHSDR; Peptide with targeting and/or antimicrobial activity) | S. mutans; also recorded: E. coli
26 | PF-242 (KLFEDPLIKSKAVENFQTTWHEQCLAKELAKNM; Peptide with targeting and/or antimicrobial activity) | S. mutans; also recorded: E. coli

Row | Substance | Target(s)
27 | PF-244 (HMRTISYLLAFAKFSLFIPPKQSLKRL; Peptide with targeting and/or antimicrobial activity) | S. epidermidis; also recorded: M. luteus; also recorded: P. aeruginosa; also recorded: A. baumannii
28 | PF-245 (MNDVKPVVQPKQTLKAFLVQLLSVRAGVYIKQNNQLPKTKG; Peptide with targeting and/or antimicrobial activity) | S. epidermidis; also recorded: M. luteus; also recorded: P. aeruginosa; also recorded: A. baumannii
29 | PF-246 (QPDEKAEFFDPSLDKVYRHPTFYHIPDGIEHM; Peptide with targeting and/or antimicrobial activity) | S. mutans
30 | PF-247 (ETAASETH; Peptide with targeting and/or antimicrobial activity) | S. epidermidis
31 | PF-248 (ILSKLWFWMINSLGVVLLVSYWLLAKWGVA; Peptide with targeting and/or antimicrobial activity) | S. mutans; also recorded: S. epidermidis; also recorded: M. luteus; also recorded: E. coli; also recorded: P. aeruginosa; also recorded: A. baumannii
32 | PF-253 (VRDDDS; Peptide with targeting and/or antimicrobial activity) | S. epidermidis; also recorded: M. luteus
33 | PF-254 (FIYGVGFVPHFWLWKWLFSPWIAWPLMLLGYYIWFLT; Peptide with targeting and/or antimicrobial activity) | S. epidermidis; also recorded: M. luteus; also recorded: P. aeruginosa; also recorded: A. baumannii
34 | PF-256 (EYFKQVYVKNEKIYSFWICKDLSPKEAAKRAEDILVKLK; Peptide with targeting and/or antimicrobial activity) | S. epidermidis
35 | PF-259 (LPFSKIGRRVSYKKKDVLKYEQSKTVLNTAQLATV; Peptide with targeting and/or antimicrobial activity) | S. epidermidis; also recorded: P. aeruginosa; also recorded: A. baumannii
36 | PF-262 (DPHSEIDVTRYCQLHHFTCQTMQISEREFHYLIETQ; Peptide with targeting and/or antimicrobial activity) | S. mutans; also recorded: S. epidermidis; also recorded: M. luteus; also recorded: E. coli; also recorded: P. aeruginosa; also recorded: A. baumannii
37 | PF-263 (NLKKCPC; Peptide with targeting and/or antimicrobial activity) | S. epidermidis; also recorded: M. luteus; also recorded: A. baumannii
38 | PF-265 (MKTLFFPLFLIIFVLIIQALDQSYQKKIGISKPQKHPEFMQ; Peptide with targeting and/or antimicrobial activity) | S. epidermidis; also recorded: M. luteus; also recorded: A. baumannii
39 | PF-266 (DQEKKNKTEESTEQ; Peptide with targeting and/or antimicrobial activity) | S. mutans
40 | PF-267 (SDDKRTD; Peptide with targeting and/or antimicrobial activity) | M. luteus
41 | PF-268 (EVLLSDLRPDIFSET; Peptide with targeting and/or antimicrobial activity) | S. mutans
42 | PF-275 (LVSGVANTVKNTAHTVGNTAKHAGHVAADTTVKATKKQQVK; Peptide with targeting and/or antimicrobial activity) | S. mutans
43 | PF-279 (SHIGFISISACLAVLLGIARLFVWTWVKFFA; Peptide with targeting and/or antimicrobial activity) | S. mutans; also recorded: S. epidermidis; also recorded: M. luteus; also recorded: E. coli; also recorded: P. aeruginosa; also recorded: A. baumannii
44 | PF-281 (SYNTYYNKLIHGQRTPDGM; Peptide with targeting and/or antimicrobial activity) | S. mutans; also recorded: E. coli
45 | PF-282 (QNNDTSAWCGSAHKNGNS; Peptide with targeting and/or antimicrobial activity) | S. mutans
46 | PF-284 (MRYITYSLIPRLLSKKVIHQQ; Peptide with targeting and/or antimicrobial activity) | C. difficile
47 | PF-285 (VPAKLLRVIDEIPE; Peptide with targeting and/or antimicrobial activity) | S. mutans
48 | PF-288 (IYQLLNIEYSEDD; Peptide with targeting and/or antimicrobial activity) | S. mutans; also recorded: E. coli
49 | PF-291 (DVDGAIESEL; Peptide with targeting and/or antimicrobial activity) | S. mutans; also recorded: E. coli
50 | PF-295 (NIQVYESECGNYIFKKSDESFLIDIFDKNGTH; Peptide with targeting and/or antimicrobial activity) | C. difficile
51 | PF-299 (LATKLKYEKEHKKM; Peptide with targeting and/or antimicrobial activity) | B. subtilis
